{"source": "paper doi:10.1101/2024.02.23.581731v1", "about": "(biorxiv, 2024)", "key": {"[1]": {"molecular_target": "T1, r5-HT3AR (Rattus norvegicus, UniProt P35563)", "T1 sequence (P35563 24-483)": "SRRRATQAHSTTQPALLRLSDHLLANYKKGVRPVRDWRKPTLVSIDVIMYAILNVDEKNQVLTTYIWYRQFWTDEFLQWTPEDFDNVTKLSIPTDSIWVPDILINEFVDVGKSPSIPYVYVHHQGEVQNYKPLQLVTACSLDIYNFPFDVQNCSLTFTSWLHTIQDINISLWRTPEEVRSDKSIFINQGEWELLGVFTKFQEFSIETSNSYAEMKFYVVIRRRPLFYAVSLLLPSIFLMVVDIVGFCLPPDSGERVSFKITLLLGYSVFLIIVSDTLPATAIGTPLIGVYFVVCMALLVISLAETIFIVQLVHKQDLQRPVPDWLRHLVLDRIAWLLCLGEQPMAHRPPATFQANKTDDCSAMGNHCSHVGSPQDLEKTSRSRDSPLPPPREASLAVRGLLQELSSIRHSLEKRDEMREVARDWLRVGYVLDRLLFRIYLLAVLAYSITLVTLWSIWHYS", "experiment": "FLIPR Blue membrane potential assay, inhibition of 5-HT response", "assay_type": "cell-based"}, "[2]": {"molecular_target": "T2, h5-HT3AR (Homo sapiens, UniProt P46098, M223I)", "T2 sequence (P46098 24-478 M223I)": "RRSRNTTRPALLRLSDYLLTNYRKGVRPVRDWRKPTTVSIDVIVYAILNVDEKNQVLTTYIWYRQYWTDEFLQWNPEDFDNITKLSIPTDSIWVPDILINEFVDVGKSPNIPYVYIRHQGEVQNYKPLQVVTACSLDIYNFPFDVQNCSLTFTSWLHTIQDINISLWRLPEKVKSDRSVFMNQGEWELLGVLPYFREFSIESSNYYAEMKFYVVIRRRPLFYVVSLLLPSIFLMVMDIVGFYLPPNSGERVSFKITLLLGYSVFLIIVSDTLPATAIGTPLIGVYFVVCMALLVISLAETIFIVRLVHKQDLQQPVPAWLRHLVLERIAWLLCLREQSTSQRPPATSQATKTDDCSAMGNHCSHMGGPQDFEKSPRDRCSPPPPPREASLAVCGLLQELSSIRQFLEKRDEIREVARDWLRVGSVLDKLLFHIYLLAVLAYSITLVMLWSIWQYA", "experiment": "FLIPR Blue membrane potential assay, inhibition of 5-HT response", "assay_type": "cell-based"}, "[3]": {"molecular_target": "T3, h5-HT3AR (Homo sapiens, UniProt P46098)", "T3 sequence (P46098 24-478)": "T2 sequence (P46098 24-478 M223I) with I200M", "experiment": "[3H]-GR65630 displacement, HEK-293 membranes", "assay_type": "binding"}, "[4]": {"molecular_target": "T4, h5-HT3AR (Homo sapiens, UniProt P46098, V202I)", "T4 sequence (P46098 24-478 V202I)": "T2 sequence (P46098 24-478 M223I) with V179I, I200M", "experiment": "FLIPR Blue membrane potential assay, inhibition of 5-HT response", "assay_type": "cell-based"}, "[5]": {"molecular_target": "T5, h5-HT3AR (Homo sapiens, UniProt P46098, S225T)", "T5 sequence (P46098 24-478 S225T)": "T2 sequence (P46098 24-478 M223I) with I200M, S202T", "experiment": "FLIPR Blue membrane potential assay, inhibition of 5-HT response", "assay_type": "cell-based"}, "[6]": {"molecular_target": "T6, r5-HT3AR (Rattus norvegicus, UniProt P35563, I207V)", "T6 sequence (P35563 24-483 I207V)": "T1 sequence (P35563 24-483) with I184V", "experiment": "FLIPR Blue membrane potential assay, inhibition of 5-HT response", "assay_type": "cell-based"}}, "note": "Changes are numbered by the printed parent chain."}
{"molecule": "Cc1ccc(Sc2ccccc2N2CCNCC2)c(C)c1", "note": "[vortioxetine]", "values": [{"measurement": "IC50", "setting": "[1]", "result": 26, "unit": "nM"}, {"measurement": "IC50", "setting": "[2]", "result": 20, "unit": "nM"}, {"measurement": "Ki", "setting": "[3]", "result": 24, "unit": "nM"}, {"measurement": "IC50", "setting": "[4]", "result": 37, "unit": "nM"}, {"measurement": "IC50", "setting": "[5]", "result": 58, "unit": "nM"}, {"measurement": "IC50", "setting": "[6]", "result": 10, "unit": "nM"}]}
